From PubChem BioAssay (NCI) come the findings set out here.

What all share (assay): NCI tumour cell line growth inhibition, 48 h
Assay [1] relates to HOP-62 NSCLC.
Assay [2] deals with COLO 205 colon.
The subject of assay [3] is NCI-H23 lung.
Assay [4] relates to M14 melanoma.
Assay [5] relates to HOP-92 NSCLC.
Assay [6] relates to IGROV1 ovarian.
Assay [7] concerns UACC-62 melanoma.
In assay [8] the test system is MDA-MB-435.
Assay [9] relates to RXF 393 renal.
For assay [10], the system named is SR leukemia.

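A five-concentration, 48-hour dose response in 96-well plates underlies each endpoint, interpolated linearly between surrounding concentrations. The concentration for 50% growth inhibition is given as GI50. TGI denotes the concentration required for complete inhibition of growth.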

Turning to `O=C(c1ccccc1)c1nn(-c2cccc(Cl)c2)c2nc3nc(-c4ccccc4)cc(=O)n3nc12`, the GI50 in assay [1], in assay [2], in assay [3], in assay [4], in [5] and in [6] was over 25 µM each time. The GI50 in [7], in [8], in assay [9] and in assay [10] was over 25 µM each time. In addition, the TGI in [1], in assay [2], in assay [3], in [4], in [5] and in [6] was over 25 µM in each case. For the same compound, the TGI in assay [7], in [8], in [9] and in assay [10] was over 25 µM in each case.

As for `c1cc(CSP234N5CCN2CCN3CCN4CC5)cc(CSP234N5CCN2CCN3CCN4CC5)c1`, the TGI in assay [1] is over 100 µM; in assay [2], 49.9 µM; in assay [3], over 100 µM; in [4], 49 µM; in [5] it was 64.5 µM; in assay [6], 76.6 µM. In addition, the TGI in [7] turned out to be 36.6 µM; in assay [8] it was 59.3 µM; in assay [10], 28.2 µM.

On to `C/C(=C\COP(=O)(O)OP(=O)(O)O)CC/C=C(\C)CNc1c(F)c(F)c(F)c(F)c1F`, for which the TGI in assay [1], in [2], in assay [3], in [4], in [5] and in assay [6] was over 100 µM in each case. Further, the TGI in [7] was over 100 µM; in assay [8], over 100 µM; in assay [9], over 100 µM; in assay [10] it was 0.308 µM.

In the case of `O=c1[nH]nc(-c2cccc([N+](=O)[O-])c2)[nH]1`, the TGI in assay [1], in [2], in [3], in assay [4], in [6] and in assay [7] was over 100 µM each time. The TGI in assay [8], in [9] and in assay [10] was over 100 µM throughout.

On to `O=C(OC[C@H]1C[C@H]2C(=O)OCCC[C@H]2O1)c1ccccc1`, for which the TGI in assay [1], in assay [2], in [3], in [4], in assay [5] and in assay [6] was over 100 µM in each case. The TGI in assay [7], in [8] and in assay [10] was over 100 µM each time.

As to `CC1(C)OCC(/C=C\C(O)CC2(C)OCCO2)CO1` (stereo not drawn), the TGI in [1], in assay [2], in assay [4], in [5], in assay [6] and in [7] was over 100 µM in each case. The TGI in [8] and in assay [10] was over 100 µM each time.

Consider `CC(=O)N(C(=O)CC(=O)N1N=C(C)C(N=Nc2cccc([N+](=O)[O-])c2)C1=O)c1ccc(Cl)cc1` (stereo not drawn), for which the TGI in [1], in assay [2], in assay [3], in [4], in assay [5] and in [6] was over 10 µM throughout. In addition, the TGI in assay [7], in [8] and in assay [10] was over 10 µM in each case.

With `O=C1c2cccc3cc([N+](=O)[O-])cc(c23)C(=O)N1c1ccc(OCCN2CCCC2)cc1`, the TGI in assay [1] was 76.4 µM; in assay [2] it was 38.3 µM; in assay [3], 39.7 µM; in [4] it was 47.1 µM; in [5], over 100 µM; in assay [6], 41.9 µM. The TGI in assay [8] turned out to be 45.1 µM; in assay [9], 37 µM; in assay [10], 73.2 µM.

Turning to `O=C(Cn1c(=O)oc2ccccc21)N(c1ccccc1)c1ccccc1`, the TGI in [1], in assay [2], in [3], in assay [4], in assay [6] and in [7] was over 100 µM each time. Besides, the TGI in [8], in assay [9] and in [10] was over 100 µM each time.

For the compound `NC1=Nc2ncccc2C(=O)NN1`, the TGI in assay [1], in assay [3], in assay [4], in [5], in assay [6] and in [7] was over 10 µM throughout. For the same compound, the TGI in [8], in assay [9] and in assay [10] was over 10 µM each time.

As for `Cc1n[nH]c(=O)c2c3c([nH]c12)-c1ccccc1C3`, the TGI in assay [1], in assay [2], in assay [3], in [4], in assay [5] and in assay [6] was over 100 µM in each case. Besides, the TGI in assay [8], in assay [9] and in [10] was over 100 µM each time.

As to `CCN(CC)C(=O)N[C@@H](CC(C)C)C(=O)NC`, the TGI in assay [1], in assay [2], in [3], in assay [4], in [6] and in assay [7] was over 100 µM each time. The TGI in assay [8], in assay [9] and in assay [10] was over 100 µM throughout.

With `Cc1[nH]c2c(C)c3c([nH]c4ccc(Cl)cc43)c(C)c2c(=O)c1C`, the TGI was 19.8 µM in [1]; 18.8 µM in assay [2]; 18.9 µM in assay [3]; over 100 µM in [4]; over 100 µM in [5]; over 65.5 µM in assay [6]. The TGI in [7] was over 88.3 µM; in [8], over 53.5 µM; in assay [10], 8.19 µM.
